The record followed here is ChEMBL document CHEMBL3992546, “Discovery and optimization of benzimidazole derivatives as a novel chemotype of farnesoid X receptor (FXR) antagonists” (Bioorg Med Chem, 2017).

One experiment addresses T1, Bile acid receptor (Homo sapiens, UniProt Q96RI1).
T1 sequence (Q96RI1 whole entry): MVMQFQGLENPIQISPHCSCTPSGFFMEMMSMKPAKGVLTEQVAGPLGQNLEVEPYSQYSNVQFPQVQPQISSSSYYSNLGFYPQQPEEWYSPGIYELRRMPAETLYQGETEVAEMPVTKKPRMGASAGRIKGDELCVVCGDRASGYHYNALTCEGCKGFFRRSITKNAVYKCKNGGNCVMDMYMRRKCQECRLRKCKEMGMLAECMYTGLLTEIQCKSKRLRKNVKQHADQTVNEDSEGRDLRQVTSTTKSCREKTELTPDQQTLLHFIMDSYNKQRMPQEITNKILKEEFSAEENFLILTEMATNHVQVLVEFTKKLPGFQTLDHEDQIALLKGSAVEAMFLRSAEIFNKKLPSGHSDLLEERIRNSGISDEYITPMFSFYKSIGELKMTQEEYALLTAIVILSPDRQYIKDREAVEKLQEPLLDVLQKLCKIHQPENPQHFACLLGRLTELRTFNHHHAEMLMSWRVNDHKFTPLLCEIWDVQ
Briefly: Inhibition of GW4064-induced fluorecein-labeled SRC2-2 coactivator recruitment in GST-tagged FXR LBD (unknown origin) by Lanthascreen TR-FRET assay. For orientation: Time-resolved FRET reads energy transfer from a long-lived donor to a nearby acceptor.

Experiment [1] can be described thus: Antagonist activity at human FXRalpha expressed in human Hep3B cells assessed as inhibition of CDCA-induced FXR response element driven luciferase activity after 24 hrs. It is filed as cell-based. The following applies: for pIC50: Homo sapiens, Hep3B, 24 h, read-out: IC50.
Experiment [2] concerns the target T2, Bile acid receptor (Homo sapiens) (UniProt Q96RI1).
T2 sequence (whole entry): T1 sequence (Q96RI1 whole entry)
Briefly: Antagonist activity at FXR in human Hep3B cells assessed as inhibition of CDCA-induced SHP expression level at 0.2 to 5 uM after 24 hrs by RT-PCR method. The experiment is classed as cell-based.

The target in experiment [3] is T3, Retinoic acid receptor RXR-alpha (Homo sapiens) (UniProt P19793).
T3 sequence (whole entry): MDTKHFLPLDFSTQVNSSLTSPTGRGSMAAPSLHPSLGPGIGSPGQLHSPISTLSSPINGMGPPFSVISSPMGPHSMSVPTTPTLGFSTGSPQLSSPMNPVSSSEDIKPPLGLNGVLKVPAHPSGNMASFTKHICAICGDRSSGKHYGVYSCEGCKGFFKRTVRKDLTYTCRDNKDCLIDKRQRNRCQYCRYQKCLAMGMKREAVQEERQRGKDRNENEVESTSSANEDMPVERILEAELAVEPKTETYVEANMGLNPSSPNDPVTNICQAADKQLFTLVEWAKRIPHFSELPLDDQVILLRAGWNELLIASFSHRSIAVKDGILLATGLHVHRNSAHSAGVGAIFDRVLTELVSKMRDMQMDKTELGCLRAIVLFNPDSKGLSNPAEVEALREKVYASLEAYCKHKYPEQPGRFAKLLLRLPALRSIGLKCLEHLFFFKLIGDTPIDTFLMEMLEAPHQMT
Briefly: Antagonist activity at human RXRalpha expressed in human Hep3B cells assessed as inhibition of 9-cis-retinoic acid-induced RXR response element driven luciferase activity at 100 uM after 24 hrs. The experiment is classed as cell-based.

Experiment [4] addresses T2, Bile acid receptor (Homo sapiens). Briefly: Antagonist activity at FXR in human Hep3B cells assessed as inhibition of CDCA-induced decrease in CYP7A1 expression level at 0.2 to 5 uM after 24 hrs by RT-PCR method. It is filed as cell-based.

pIC50: −log10 of the molar value. Active and inactive are the calls of the source. No cut-off for these calls is given here. Where only a bound is given, the exact number is not on record here.

The term pIC50 denotes −log10 of the IC50, conventionally taken in molar units.

Consider `Cn1c([C@@H](Cc2ccccc2)N2C(=O)CN(c3ccc(Oc4ccccc4)cc3)C2=O)nc2ccc(C(=O)O)cc21`, for which the negative logarithm of the IC50 (pIC50) was 4.06 on Bile acid receptor and 4.86 in experiment [1].
As for `CC(C)[C@H](c1nc2ccc(C(=O)O)cc2n1C)N1C(=O)CN(c2ccc(Oc3ccccc3)cc2)C1=O`, the negative logarithm of the IC50 (pIC50) against Bile acid receptor was 3.93; in experiment [1], 4.00.
Regarding `CC(C)C[C@@H](c1nc2ccc(C(=O)O)cc2n1C)N1CCN(c2ccc(Oc3ccccc3)cc2)C1=O`, the negative-log IC50 (pIC50) against Bile acid receptor is 4.55; in experiment [1] it was 5.24.
For `COc1ccc(Oc2ccc(N3CC(=O)N([C@@H](CC(C)C)c4nc5ccc(C(=O)O)cc5n4C)C3=O)cc2)cc1`, the results for the negative-log IC50 (pIC50) (against Bile acid receptor; in experiment [1]) were 4.12 and 5.35, respectively.
Take `Cc1ccc2nc([C@H](CC3CCCCC3)N3C(=O)CN(c4ccc(Oc5ccccc5)cc4)C3=O)n(C)c2c1`: the inhibition result in experiment [2] and in experiment [4] was “Active” throughout. Moreover, the negative logarithm of the IC50 (pIC50) against Bile acid receptor is 3.90; in experiment [1] it was 8.92. For the same compound, the inhibition entry in experiment [3] is “inactive”.
Regarding `CC(C)C[C@@H](c1nc2ccc(C(=O)O)cc2n1C)N1CC(=O)N(c2ccc(Oc3ccccc3)cc2)CC1=O`, the negative-log IC50 (pIC50) against Bile acid receptor was 3.38. Moreover, the IC50 result in experiment [1] is recorded as “Not Active”.
Turning to `CC(C)C[C@@H](c1nc2ccc(C(=O)O)cc2n1C)N1C(=O)CN(c2ccc(Oc3ccccc3)cc2)C1=O`, the values for the negative-log IC50 (pIC50) (against Bile acid receptor; in experiment [1]) were 4.36 and 5.25, respectively.
The matching figures for `CC(C)C[C@@H](c1nc2ccc(C(=O)O)cc2n1C)N1C(=O)CN(c2ccc(OC3CCCCC3)cc2)C1=O`: 3.90 and 4.26.
Take `C/C=C1\C(=O)C[C@H]2[C@@H]3CCC4=CC(=O)CC[C@]4(C)[C@H]3CC[C@]12C` [GUGGULSTERONE]: in experiment [1], the pIC50 is 5.70.
Turning to `C[C@@H](c1nc2ccc(C(=O)O)cc2n1C)N1C(=O)CN(c2ccc(Oc3ccccc3)cc2)C1=O`, the pIC50 on Bile acid receptor was 4.98; in experiment [1] it was under 3.52.
Turning to `Cn1c([C@H](Cc2ccccc2)N2C(=O)CN(c3ccc(Oc4ccccc4)cc3)C2=O)nc2ccc(C(=O)O)cc21`, the pIC50 against Bile acid receptor is 4.45; in experiment [1] it was 5.19.
With `CC(C)C[C@@H](c1nc2ccc(C(=O)O)cc2n1C)N1C(=O)CN(c2cccc(Oc3ccccc3)c2)C1=O`, the negative logarithm of the IC50 (pIC50) against Bile acid receptor was 4.74; in experiment [1], 5.00.
`CC(C)C[C@@H](c1nc2ccc(C(=O)O)cc2n1C)N1C(=O)CN(c2ccc(F)cc2)C1=O` gave a negative logarithm of the IC50 (pIC50) on Bile acid receptor of 3.40. The IC50 entry in experiment [1] is listed as “Not Active”.
In the case of `Cn1c([C@H](CC2CCCCC2)N2C(=O)CN(c3ccc(Oc4ccccc4)cc3)C2=O)nc2ccc(C(=O)O)cc21`, the pIC50 against Bile acid receptor is 4.61; in experiment [1], 5.70.
As to `CC(C)C[C@@H](c1nc2ccc(C(=O)O)cc2n1C)N1C(=O)CN(c2ccc(Oc3ccc(Cl)cc3)cc2)C1=O`, the pIC50 is 5.59 on Bile acid receptor and 5.39 in experiment [1].
The matching figures for `CC(C)C[C@@H](c1nc2cc(C(=O)O)ccc2n1C)N1C(=O)CN(c2ccc(Oc3ccccc3)cc2)C1=O`: 3.95 and 4.74.
As to `CC(C)[C@@H](c1nc2ccc(C(=O)O)cc2n1C)N1C(=O)CN(c2ccc(Oc3ccccc3)cc2)C1=O`, the results for the pIC50 (against Bile acid receptor; in experiment [1]) were 3.76 and 5.00, respectively.
As for `Cc1ccc2nc([C@H](CC(C)C)N3C(=O)CN(c4ccc(Oc5ccccc5)cc4)C3=O)n(C)c2c1`, the figures for the pIC50 (against Bile acid receptor; in experiment [1]) were 4.18 and 6.76, respectively.
As for `CC[C@H](C)[C@@H](c1nc2ccc(C(=O)O)cc2n1C)N1C(=O)CN(c2ccc(Oc3ccccc3)cc2)C1=O`, the negative-log IC50 (pIC50) against Bile acid receptor is 3.99; in experiment [1] it was 5.42.
With `CC(C)C[C@@H](c1nc2ccc(C(=O)O)cc2n1C)N1C(=O)N(c2ccc(Oc3ccccc3)cc2)C(C)(C)C1=O`, the figures for the negative logarithm of the IC50 (pIC50) (on Bile acid receptor; in experiment [1]) were 3.98 and 4.61, respectively.
The matching figures for `CC(C)C[C@H](c1nc2ccc(C(=O)O)cc2n1C)N1C(=O)CN(c2ccc(Oc3ccccc3)cc2)C1=O`: 4.18 to 5.18 and 4.47.
For `CC[C@@H](c1nc2ccc(C(=O)O)cc2n1C)N1C(=O)CN(c2ccc(Oc3ccccc3)cc2)C1=O`, in that order: 3.68 and 4.61.
As to `CC(C)C[C@@H](c1nc2ccc(C(=O)O)cc2n1C)N1C(=O)CN(c2ccc(-c3ccccc3)cc2)C1=O`, the negative logarithm of the IC50 (pIC50) against Bile acid receptor is 4.64; in experiment [1], 4.55.
`Cn1c([C@@H](N2C(=O)CN(c3ccc(Oc4ccccc4)cc3)C2=O)C(C)(C)C)nc2ccc(C(=O)O)cc21`: the negative-log IC50 (pIC50) against Bile acid receptor is 4.11; in experiment [1], 5.20.
